Consider 13 compounds from patent publication US10765128B2, “Composition for prevention or treatment of metabolic syndrome or for antioxidation containing black bean leaf extracts and flavonol glysosides isolated therefrom as active ingredients” (KOREA RESEARCH INSTITUTE OF BIOSCIENCE AND BIOTECHNOLOGY, priority 2015, dated 2020).

Test [1] can be described thus: DPPH radical scavenging activity. Conditions: sample concentration 50 μM. How it is done: Two mL of a DPP solution was mixed in 1 mL of a test substance solution, after which a resulting mixture was stirred well. An optical density was measured at 517 nm at an interval of 1 minute for 20 minutes by using an UV/Vis spectrophotometer to evaluate the degree of DPPH radical scavenging activity.
A general note: The DPPH test is a chemical assay of radical scavenging.

Test [2] deals with LDL (low-density lipoprotein). Nature of the test: LDL-antioxidant activity, Cu2+-induced LDL oxidation (TBARS method). Type of test: biochemical. Conditions: for LDL Oxidation Inhibitory Activity: sample concentration 100 μM; for IC50: read-out: LDL Oxidation Inhibitory Activity, IC50 value. An excerpt:
Med. Chemn. Lett. 14: 2719-2723, 2004). Results thereof were shown in a following Table 9.

The test system of test [3] is MIN6 β-cells. Kind of test: insulin secretion in 30 mM glucose-induced MIN6 β-cells (ELISA insulin kit). Format: cell-based, mouse. Conditions: for activation at 100 µM: Mus musculus, MIN6, 0.5 h, sample concentration 100 μM, read-out: Increase (%) in Insulin Secretion Amount in 30 mM Glucose-induced MIN6 Pancreatic β-Cells; for increase in amount of insulin secretion relative to its aglycone: 100 μM, Formula 4 vs quercetin, Formula 7 vs isorhamnetin. On the procedure:
MIN6 β-cells, which is a mouse pancreatic. β-cell strain, was cultured in DMEM (Lonza Co.) containing 15% FBS (Gibco Co.), 100 units/ml penicillin, and 100 μg/ml streptomycin at 37° C. in a humid 5% CO2 incubator.
MIN6 cells were seeded into a 24-well plate (1×10^5 cells/well) and cultured at 37° C. in a humid 5% CO2 Incubator. In 48 hours later, the medium was first replaced with a DMEM without glucose contained therein, after which a resulting medium was left alone for 60 minutes, such that the black soybean (seoritae) leaf extract and the flavonol glycoside compounds, samples of the present invention, were treated at a certain concentration, into the DMEM with 30 mM glucose contained therein, thus being reacted for 30 minutes. A control group was one without a sample added therein under the same condition as described above, and the insulin secreted into the medium was measured by using an ELISA insulin kit (Alpco diagnostics). […]
(In general: An ELISA detects its analyte on a solid surface through an enzyme-linked reagent.)

Test [4] has as its target T1, human recombinant DPP-IV (Homo sapiens, UniProt P27487).
T1 construct: purchased ProSpec
Nature of the test: DPP-4 inhibitory activity (Ala-Pro-AFC substrate, fluorometer). Conditions: for inhibition at 200 µM: read-out: DPP-4 Inhibitory Activity (%); for DPP-4 Inhibitory Activity (%): 200 µM. Format: biochemical. On the procedure:
Particularly, the black soybean (Seoritae) leaf extract (100 μg/ml) and the flavonol glycoside compound (200 μM) were dissolved in DMSO to prepare a sample solution. Then, 10 μl of a human recombinant DPP-IV (ProSpec, the U.S.) at a concentration of 1 μg/ml, 78 μl of an incubation buffer solution (50 mM Tris, pH 7.5), and 2 μl of the sample solution prepared above were added to a 96-well microplate, after which 16 μl (a final concentration reached 40 μM) of a substrate alanine-proline-7-amino-4-trifluoromethyl-coumarin (Ala-Pro-AFC) (Enzyme System Product Co.) was added therein, and initiated the reaction. After a reaction progressed at a room temperature for 60 minutes, an amount of AFC, which was a product generated, was measured by using a fluorometer, and identified DPP4 inhibitory activities of the black soybean (Seoritae) leaf extract and the flavonol glycoside compounds by means of Equation 1. […] DPP-4Inhibitory activity (%)=100−(A/A1×100) [Equation 1]
A: AFC concentration of sample
A1: AFC concentration of a negative control group

Test [5] has as its target α-glucosidase (EC 3.2.1.20, Baker Yeast) (Saccharomyces cerevisiae, UniProt P53341). Nature of the test: α-glucosidase inhibitory activity (nitrophenol method). Conditions: sample concentration 100 μM. Format: biochemical. On the procedure: Specifically, the α-glucosidase inhibitory activity was performed using the nitrophenol method as described by Kato, et al., (J. Med. Chem 48: 2036-2044, 2005) with slight modification. An accumulation amount was measured by the optical density of a chromophoric group of monosaccharides such as glucose, which was generated by hydrolysis of a substrate p-nitrophenyl-[…] (Sigma-Aldrich) by means of α-glucosidase (EC 3.2.1.20, Baker Yeast).
Fifty μl of a buffer solution (70 mM calcium phosphate, pH 6.8), 50 μl of a sample extract or a compound dissolved in 50% DMSO, and 50 μl of α-glucosidase (0.1 unit/ml) were injected into a 96-well plate (NUNC™ Co.) and a substrate (5 mM, p-nitrophenyl-α-D-glucopyranoside) was finally added therein, after which a resulting plate was reacted at 37° C. for 30 minutes, such that 2 M NaOH was added therein to finish a reaction thereof. An amount of a chromophoric group generated was measured at 405 nm by using a microplate reader (ANTHOS™ Co.) to calculate an inhibitory activity.

Test [6] relates to RAW264.7 cells. Nature of the test: ROS accumulation inhibitory activity in LPS-stimulated RAW264.7 cells (DCFH2-DA). Type of test: cell-based. Conditions: Mus musculus, sample concentration 100 μM, LPS 1 μg/ml. On the procedure: A test substance for each concentration was prepared with DMEM, after which the test substance was added by each 100 μL/well therein, thus being reacted for 2 hours. Then, the cells were stimulated for 18 hours with LPS (1 μg/ml) treatment, such that DCFH2-DA (2′,7′-dichlorofluorescein diacetate) was added therein at a final concentration of 15 μM, thus being reacted for 30 minutes. Once a reaction was finished, the cells were washed five times with PBS and which a fluorescence value of DCF was measured on a spectrofluorimeter (480/530, ex/em). (Hayakaya M. et. al., EMBO J., 22: 3356-3866, 2003).

Where two headings read alike, the source gives them in different places. Bounds are passed on as bounds.

T1 sequence (P27487 whole entry): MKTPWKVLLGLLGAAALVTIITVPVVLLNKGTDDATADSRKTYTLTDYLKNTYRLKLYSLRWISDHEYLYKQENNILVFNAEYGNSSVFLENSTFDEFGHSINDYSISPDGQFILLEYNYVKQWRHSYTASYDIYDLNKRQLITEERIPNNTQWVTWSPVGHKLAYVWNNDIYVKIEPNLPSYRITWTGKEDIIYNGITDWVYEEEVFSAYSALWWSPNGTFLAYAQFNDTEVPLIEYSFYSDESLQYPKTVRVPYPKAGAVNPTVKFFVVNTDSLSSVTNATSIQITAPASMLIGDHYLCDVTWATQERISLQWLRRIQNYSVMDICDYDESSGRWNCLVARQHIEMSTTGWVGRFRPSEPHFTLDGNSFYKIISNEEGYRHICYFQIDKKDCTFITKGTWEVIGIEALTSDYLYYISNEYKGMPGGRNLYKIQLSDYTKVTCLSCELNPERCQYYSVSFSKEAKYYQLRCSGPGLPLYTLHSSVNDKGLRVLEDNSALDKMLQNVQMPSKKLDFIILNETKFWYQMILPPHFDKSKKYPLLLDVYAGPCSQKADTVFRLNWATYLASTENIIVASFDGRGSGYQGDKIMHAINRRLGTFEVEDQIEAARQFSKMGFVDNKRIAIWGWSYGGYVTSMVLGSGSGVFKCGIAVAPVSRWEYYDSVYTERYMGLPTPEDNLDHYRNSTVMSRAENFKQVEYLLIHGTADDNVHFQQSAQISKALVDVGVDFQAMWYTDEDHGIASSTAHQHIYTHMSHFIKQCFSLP
Sequence of α-glucosidase (EC 3.2.1.20, Baker Yeast) (P53341 whole entry): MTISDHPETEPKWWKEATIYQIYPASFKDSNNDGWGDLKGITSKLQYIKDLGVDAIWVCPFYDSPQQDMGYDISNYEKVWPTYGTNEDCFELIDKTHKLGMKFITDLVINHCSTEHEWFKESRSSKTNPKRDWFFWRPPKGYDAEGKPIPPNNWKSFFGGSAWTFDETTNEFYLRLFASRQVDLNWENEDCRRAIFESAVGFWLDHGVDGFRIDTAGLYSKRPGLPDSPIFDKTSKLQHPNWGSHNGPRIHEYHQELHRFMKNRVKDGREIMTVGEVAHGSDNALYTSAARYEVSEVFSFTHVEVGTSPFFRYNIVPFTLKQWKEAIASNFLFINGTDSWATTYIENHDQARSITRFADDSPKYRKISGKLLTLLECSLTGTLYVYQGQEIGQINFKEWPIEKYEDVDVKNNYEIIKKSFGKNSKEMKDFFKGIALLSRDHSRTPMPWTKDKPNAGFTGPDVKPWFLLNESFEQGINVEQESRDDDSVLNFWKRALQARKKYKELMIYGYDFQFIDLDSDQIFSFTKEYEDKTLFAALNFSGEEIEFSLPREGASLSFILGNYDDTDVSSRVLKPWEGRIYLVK

In the case of `O=c1c(O[C@@H]2OC(CC[C@@H]3OC(O)[C@H](O)C(O)C3O)[C@H](O)C(O)C2O[C@@H]2OC(CO)[C@@H](O)C(O)C2O)c(-c2ccc(O)cc2)oc2cc(O)cc(O)c12` (some centres unmarked) [Comparative Example 2, reference compound], the “DPPH Radical Scavenging Activity” value in test [1] stood at 8.0 ± 0.7%. In addition, the “LDL Oxidation Inhibitory Activity” value in test [2] is 28.4%.
On to `O=c1c(O[C@@H]2OC(CC[C@@H]3OC(O)[C@H](O)C(O)C3O)[C@H](O)C(O)C2O[C@@H]2OC(O)[C@H](O)C(O)C2O)c(-c2ccc(O)cc2)oc2cc(O)cc(O)c12` (some centres unmarked) [Comparative Example 3, reference compound], for which, in test [1], the “DPPH Radical Scavenging Activity” value was 4.0 ± 0.6%. For the same compound, in test [3], the activation at 100 µM was not above 19%.
With `O=c1c(-c2ccc(O)cc2)coc2cc(O[C@@H]3O[C@H](CO)[C@@H](O)[C@H](O)[C@H]3O)cc(O)c12` [Comparative Example 4, Genistin, reference compound], the “DPPH Radical Scavenging Activity” value in test [1] is on record as 3.4 ± 0.7%. Moreover, in test [2], the “LDL Oxidation Inhibitory Activity” value worked out at 41.3%.
Consider `C[C@@H]1O[C@@H](OC[C@H]2O[C@@H](Oc3c(-c4ccc(O)c(O)c4)oc4cc(O)cc(O)c4c3=O)[C@H](O[C@@H]3O[C@H](CO)[C@@H](O)[C@H](O)[C@H]3O)[C@@H](O)[C@H]2O)[C@H](O)[C@H](O)[C@H]1O` [Formula 1, quercetin 3-O-β-D-glucopyranosyl-(1→2)-[α-L-rhamnopyranosyl-(1→6)]-β-D-galactopyranoside], for which, in test [4] (sample concentration 200 μM), the inhibition at 200 µM came to 48.4 ± 1%. The “DPPH Radical Scavenging Activity” value in test [1] is recorded as 60.3 ± 1.4%. Moreover, the results for the inhibition at 100 µM in test [5] and in test [6] were 10.8 ± 0.8% and 37.3 ± 1.8%, respectively. The IC50 (in general, the concentration that inhibits the measured activity by half) in test [2] stood at 1800 nM. In addition, in test [3], the activation at 100 µM stood at 2.1 ± 0.1%.
In the case of `C[C@@H]1O[C@@H](OC[C@H]2O[C@@H](Oc3c(-c4ccc(O)c(O)c4)oc4cc(O)cc(O)c4c3=O)[C@H](O[C@@H]3O[C@H](CO)[C@@H](O)[C@H](O)[C@H]3O)[C@@H](O)[C@@H]2O)[C@H](O)[C@H](O)[C@H]1O` [Formula 2, quercetin 3-O-β-D-glucopyranosyl-(1→2)-[α-L-rhamnopyranosyl-(1→6)]-β-D-glucopyranoside], the inhibition at 200 µM in test [4] (sample concentration 200 μM) is 42.2 ± 0.9%. Besides, in test [1], the “DPPH Radical Scavenging Activity” value was 52.0 ± 0.1%. For the same compound, the inhibition at 100 µM in test [5] stood at 8.7 ± 2%; in test [6] it was 31.8 ± 1.7%. The IC50 in test [2] came out at 1900 nM. For the same compound, the activation at 100 µM in test [3] came to 25.3 ± 3.3%.
For `O=c1c(O[C@@H]2OC(CO)[C@H](O)C(O)C2O[C@@H]2OC(CO)[C@@H](O)C(O)C2O)c(-c2ccc(O)c(O)c2)oc2cc(O)cc(O)c12` (stereo partly drawn) [Formula 3, quercetin 3-O-(2-β-D-glucopyranosyl)-β-D-galactopyranoside], the inhibition at 200 µM in test [4] (sample concentration 200 μM) is 46.7 ± 1.5%. Besides, the “DPPH Radical Scavenging Activity” value in test [1] was found to be 64.8 ± 0.9%. In addition, the inhibition at 100 µM in test [5] turned out to be 63.9 ± 0.2%; in test [6] it was 44.1 ± 2.8%. Moreover, the IC50 in test [2] was 2100 nM. Besides, the activation at 100 µM in test [3] is 37.8 ± 5.4%.
Consider `O=c1c(O[C@@H]2OC(CO)[C@@H](O)C(O)C2O[C@@H]2OC(CO)[C@@H](O)C(O)C2O)c(-c2ccc(O)c(O)c2)oc2cc(O)cc(O)c12` (stereo partly drawn) [Formula 4, quercetin 3-O-(2-β-D-glucopyranosyl)-β-D-glucopyranoside], for which the inhibition at 200 µM in test [4] (sample concentration 200 μM) is 42.5 ± 1.5%. For the same compound, in test [1], the “DPPH Radical Scavenging Activity” value came out at 59.5 ± 0.5%. In test [5], this compound came in with an inhibition at 100 µM of 23.4 ± 2.3%. Further, the half-inhibitory concentration (IC50) in test [2] was found to be 2300 nM. In test [6], this compound showed an inhibition at 100 µM of 26 ± 1.9%. In test [3], the “increase in amount of insulin secretion relative to its aglycone” value was “twice” and the activation at 100 µM came to 63.6 ± 2.6%.
With `CC1O[C@@H](OC2C(O)[C@@H](O)C(CO)O[C@H]2Oc2c(-c3ccc(O)c(O)c3)oc3cc(O)cc(O)c3c2=O)C(O)C(O)[C@H]1O` (stereo partly drawn) [Formula 5, quercetin 3-O-(2-α-D-rhamnopyranosyl)-β-D-galactopyranoside], in test [4], the inhibition at 200 µM turned out to be 48.7 ± 0.4%. In addition, the “DPPH Radical Scavenging Activity” value in test [1] was determined as 85.9 ± 0.4%. Moreover, the figures for the inhibition at 100 µM in test [5] and in test [6] were 17.6 ± 2.3% and 23.7 ± 1.4%, respectively. Besides, the half-inhibitory concentration (IC50) in test [2] was found to be 400 nM. For the same compound, the activation at 100 µM in test [3] stood at 24.3 ± 2.7%.
For the compound `COc1cc(-c2oc3cc(O)cc(O)c3c(=O)c2O[C@@H]2OC(CO)[C@H](O)C(O)C2O[C@@H]2OC(CO)[C@@H](O)C(O)C2O)ccc1O` (stereo partly drawn) [Formula 6, isorhamnetin 3-O-(2-β-D-glucopyranosyl)-β-D-galactopyranoside], the inhibition at 200 µM in test [4] (sample concentration 200 μM) came to 39.4%. Also, the “DPPH Radical Scavenging Activity” value in test [1] is on record as 11.5 ± 0.5%. In addition, the inhibition at 100 µM stood at 26.2 ± 1.7% in test [5] and 58.8 ± 0.9% in test [6]. Further, in test [2], the “LDL Oxidation Inhibitory Activity” value amounted to 65.7%. In test [3], the activation at 100 µM is 38.5 ± 3.3%.
As to `COc1cc(-c2oc3cc(O)cc(O)c3c(=O)c2O[C@@H]2OC(CO)[C@H](O)C(O)C2O[C@@H]2OC(C)[C@H](O)C(O)C2O)ccc1O` (stereo partly drawn) [Formula 7, isorhamnetin 3-O-α-L-rhamnopyranosyl-(1→2)-β-D-galactopyranoside], in test [4] (sample concentration 200 μM), the inhibition at 200 µM stood at 48.1%. Further, the “DPPH Radical Scavenging Activity” value in test [1] is on record as 7.5 ± 0.6%. In addition, the inhibition at 100 µM in test [5] stood at 22.7 ± 0.9%; in test [6], 21.9 ± 0.6%. The “LDL Oxidation Inhibitory Activity” value in test [2] came out at 55.7%. The “increase in amount of insulin secretion relative to its aglycone” value in test [3] is “four”. In addition, the activation at 100 µM in test [3] worked out at 106 ± 5.1%.
Take `COc1cc(-c2oc3cc(O)cc(O)c3c(=O)c2O)ccc1O` [Isorhamnetin, reference compound]: the inhibition at 200 µM in test [4] (sample concentration 200 μM) amounted to 21.6%. In test [3], the activation at 100 µM was found to be 26.6 ± 4.1%.
In the case of `O=c1c(O)c(-c2ccc(O)cc2)oc2cc(O)cc(O)c12` [Kaempferol, reference compound], in test [3], the activation at 100 µM is not above 19%.
For the compound `O=c1c(O)c(-c2ccc(O)c(O)c2)oc2cc(O)cc(O)c12` [Quercetin, reference compound], the “DPP-4 Inhibitory Activity (%)” value came to 14.5 ± 1.5% in test [4] (sample concentration 200 μM) and 145% in test [4] (sample concentration 200 μM, listed as quercetin). Further, in test [3], the activation at 100 µM was 35.6 ± 3.4%.
